Data on ten compounds can be found in PubChem BioAssay (NCI).

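Tested at 5 concentrations; 48 h exposure; 96-well plates; endpoints linearly interpolated, else capped at highest concentration. Here, GI50 denotes the concentration required for 50% inhibition of growth. TGI: concentration producing complete growth inhibition.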 Where only a bound is given, the exact number is not on record here.

Test in all cases: NCI anticancer screen, dose series, 48 h
Experiment [1] deals with A549 NSCLC.
Experiment [2] has as its system HOP-62 NSCLC.
The test system of experiment [3] is HT29 colon.
In experiment [4] the test system is IGROV1 ovarian.
Experiment [5] concerns MOLT-4 leukemia.
The subject of experiment [6] is NCI-H23 lung.
Experiment [7] concerns SK-OV-3 ovarian.
For experiment [8], the system named is SNB-19 CNS.
Experiment [9] has as its system SR leukemia.
Experiment [10] has as its system UACC-257 melanoma.

On to `O=C(NC[C@H](O)CN1CCc2ccccc2C1)c1cc(NC2COC2)ncn1`, for which the GI50 in experiment [1] is 39.5 µM; in experiment [2] it was 37.7 µM; in experiment [3], 20.8 µM; in experiment [4] it was 15.7 µM; in [5] it was 15.1 µM; in experiment [6], 19.3 µM. For the same compound, the GI50 was 77.2 µM in experiment [7], 11.9 µM in experiment [8], 9.29 µM in [9] and 19.8 µM in experiment [10]. In addition, the TGI in experiment [1] was over 100 µM; in experiment [2], over 100 µM; in [3], over 100 µM; in experiment [4], 39.9 µM; in [5], 49.3 µM; in experiment [6], over 100 µM. Besides, the TGI in experiment [7] was over 100 µM; in [8] it was 98 µM; in experiment [9], 50.9 µM; in experiment [10], 90.4 µM.

In the case of `O=C(Nc1ccc(Br)cc1F)c1cc(Cl)ccc1O`, the GI50 was 2.78 µM in experiment [1]; 1.64 µM in experiment [2]; 3.09 µM in experiment [3]; 0.388 µM in experiment [4]; 1.76 µM in [5]; 0.492 µM in [6]. The GI50 was 0.441 µM in experiment [7], 0.418 µM in experiment [8], 0.541 µM in [9] and 0.731 µM in experiment [10]. The TGI is over 100 µM in [1]; 5.22 µM in experiment [2]; 31.5 µM in [3]; over 100 µM in experiment [4]; 5.11 µM in [5]; 5.14 µM in [6]. Besides, the TGI in experiment [7] is 2.2 µM; in experiment [8], over 100 µM; in experiment [9], over 30.1 µM; in experiment [10], 4.82 µM.

Turning to `COCC(OC)C(CC=C(C#N)C#N)OC` (stereo not given), the TGI in experiment [1], in experiment [2], in experiment [3], in [4], in experiment [5] and in experiment [6] was over 100 µM in each case. Besides, the TGI in experiment [7], in experiment [8], in experiment [9] and in experiment [10] was over 100 µM each time.

As for `Cc1nc(N)sc1N=Nc1ccccc1Br`, the TGI in experiment [1] was over 100 µM; in [2], 78.4 µM; in experiment [3], 59 µM; in experiment [4] it was 64.4 µM; in experiment [5], over 100 µM; in experiment [6], 56.3 µM. Moreover, the TGI is over 100 µM in experiment [7], over 69.7 µM in experiment [8], over 100 µM in [9] and 55.8 µM in [10].

Regarding `N#Cc1nn(-c2cc(=O)[nH]c3ccc(Cl)cc23)c(N)c1C#N`, the GI50 in experiment [1], in [2], in experiment [3], in experiment [4], in experiment [5] and in experiment [6] was over 100 µM in each case. Further, the GI50 in experiment [7], in experiment [8], in [9] and in experiment [10] was over 100 µM in each case. Also, the TGI in experiment [1], in experiment [2], in [3], in experiment [4], in experiment [5] and in experiment [6] was over 100 µM throughout. Also, the TGI in [7], in experiment [8], in experiment [9] and in [10] was over 100 µM each time.

On to `C/C(CC(=O)Nc1ccc(C)c(C)c1)=N\N(c1ccccc1)c1ccccc1`, for which the TGI in experiment [1], in experiment [2], in [3], in [4], in [5] and in [6] was over 100 µM each time. Moreover, the TGI in [7] is over 100 µM; in experiment [8], over 100 µM; in experiment [9], 51.2 µM; in experiment [10], over 100 µM.

In the case of `CC1CC2CCCC(O)=C2C(=O)O1` (stereo not given), the TGI in experiment [1], in experiment [2], in experiment [3], in experiment [4], in experiment [5] and in experiment [6] was over 100 µM in each case. The TGI is over 100 µM in [7], over 64.8 µM in experiment [8], over 100 µM in experiment [9] and over 100 µM in experiment [10].

Take `CC1(C)OC2C(CO[Si](C)(C)C(C)(C)C)OC(n3c(I)c(C#C[Si](C)(C)C)c(=O)[nH]c3=O)C2O1` (stereo not given): the GI50 in experiment [1] is over 100 µM; in experiment [2], over 100 µM; in experiment [3], 5.01 µM; in experiment [4], 7.87 µM; in experiment [5], 1.47 µM; in experiment [6] it was 18.2 µM. For the same compound, the GI50 in experiment [7] was over 100 µM; in experiment [8], over 100 µM; in experiment [9] it was 1.42 µM; in [10] it was 13.3 µM. Further, the TGI in experiment [1] is over 100 µM; in [2], over 100 µM; in [3], 23.7 µM; in experiment [4], 21.5 µM; in [5] it was 3.54 µM; in experiment [6], 50.9 µM. In addition, the TGI was over 100 µM in experiment [7], over 100 µM in experiment [8], 4.3 µM in experiment [9] and 30.1 µM in experiment [10].

Take `COC(=O)/C(=N\NC(N)=S)C(C(=O)OC)C(=O)C(=O)Nc1ccc(C)cc1` (stereo not given): the TGI in [1], in [2], in experiment [3], in [4], in experiment [5] and in experiment [6] was over 100 µM each time. For the same compound, the TGI in [7], in experiment [8], in experiment [9] and in experiment [10] was over 100 µM in each case.

With `O=[N+]([O-])c1ccc2occ3c2c1CCC3`, the TGI in experiment [1], in experiment [2], in experiment [3], in [4], in [5] and in experiment [6] was over 100 µM each time. Also, the TGI in experiment [7], in [8], in experiment [9] and in experiment [10] was over 100 µM throughout.
